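Where inhibition never reached the appropriate level, the endpoint shown equals the highest concentration tested. Otherwise, values were interpolated linearly from a five-concentration, 48-hour dose response in 96-well plates. Here, GI50 denotes the concentration required for 50% inhibition of growth.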 The source made the active and inactive calls. Rule as the data show it: active = GI50 up to about 1.1 µM and inactive = higher.
Assays:
Assay in all cases: NCI tumour cell line growth inhibition, 48 h
SK-MEL-2 = test system: SK-MEL-2
NCI-H226 = test system: NCI-H226
CCRF-CEM = test system: CCRF-CEM
HCC 2998 = test system: HCC 2998
HOP-92 = test system: HOP-92
HCT-116 = test system: HCT-116
U-251 = test system: U-251
A498 = test system: A498
786-0 = test system: 786-0
COLO 205 = test system: COLO 205
NCI-H23 = test system: NCI-H23
UACC-257 = test system: UACC-257
SN12C = test system: SN12C
UACC-62 = test system: UACC-62
Malme-3M = test system: Malme-3M
ACHN = test system: ACHN
M14 = test system: M14

Measured: GI50

COc1ccc2c(CN3CCCCC3CO)cc3cc(OC)c(OC)cc3c2c1 (stereo not drawn)
inactive: SK-MEL-2 4.17 µM | NCI-H226 4.32 µM | CCRF-CEM 3.56 µM | HCC 2998 7.59 µM | HOP-92 2.1 µM | HCT-116 1.75 µM | U-251 5.85 µM | A498 3.59 µM | 786-0 4.8 µM | COLO 205 2.58 µM | NCI-H23 3.81 µM | UACC-257 3.82 µM | SN12C 6.25 µM | UACC-62 10.4 µM | Malme-3M 4.63 µM | ACHN 3.5 µM | M14 4.74 µM

C/C(CC(=O)Nc1ccc(NC(=O)C/C(C)=N\NC(N)=O)cc1)=N/NC(N)=O
inactive: SK-MEL-2 > 95.3 µM | NCI-H226 > 100 µM | CCRF-CEM > 62.8 µM | HCC 2998 > 100 µM | HOP-92 71.1 µM | HCT-116 > 68.9 µM | U-251 > 78 µM | A498 > 100 µM | 786-0 > 68.9 µM | COLO 205 > 50.9 µM | NCI-H23 98.4 µM | UACC-257 > 100 µM | SN12C > 100 µM | UACC-62 > 84.9 µM | Malme-3M > 100 µM | ACHN 99.8 µM | M14 65.3 µM

CN(C)CCNC(=O)c1cccc2[nH]c(-c3ccccc3)nc12
inactive: SK-MEL-2 18.5 µM | NCI-H226 16.4 µM | CCRF-CEM 15.9 µM | HCC 2998 15.3 µM | HOP-92 20.3 µM | HCT-116 9.73 µM | U-251 25.4 µM | A498 13.1 µM | 786-0 36.3 µM | COLO 205 11.6 µM | NCI-H23 17.4 µM | UACC-257 16.9 µM | SN12C 16.7 µM | UACC-62 18.5 µM | ACHN 15.3 µM | M14 17.3 µM

COC(=O)CC(CC(=O)C(=O)OC)C(=O)OC (stereo not drawn)
inactive: SK-MEL-2 > 100 µM | NCI-H226 > 100 µM | CCRF-CEM > 100 µM | HCC 2998 > 100 µM | HOP-92 > 100 µM | HCT-116 > 100 µM | U-251 > 100 µM | A498 > 100 µM | 786-0 > 100 µM | COLO 205 > 100 µM | NCI-H23 > 100 µM | UACC-257 > 100 µM | SN12C > 100 µM | UACC-62 > 100 µM | Malme-3M > 100 µM | ACHN > 100 µM | M14 > 100 µM

CC1OC(n2cc(I)c(=O)[nH]c2=O)C=CC1=O (stereo not drawn)
inactive: SK-MEL-2 17.9 µM | NCI-H226 17.6 µM | CCRF-CEM 2.43 µM | HCC 2998 17.5 µM | HOP-92 19.7 µM | HCT-116 11.8 µM | U-251 14.4 µM | A498 16.1 µM | 786-0 14 µM | COLO 205 17 µM | NCI-H23 17 µM | UACC-257 14.7 µM | SN12C 18.7 µM | UACC-62 17.2 µM | Malme-3M 14.9 µM | ACHN 17.7 µM | M14 16.9 µM

CC1C2=C(CCCC2=O)N(c2ccc(Cl)cc2)C2=C1C(=O)CCC2
inactive: NCI-H226 > 100 µM | CCRF-CEM 38.5 µM | HCC 2998 > 100 µM | HOP-92 42.3 µM | U-251 54.7 µM | A498 > 100 µM | 786-0 > 100 µM | NCI-H23 > 100 µM | SN12C 83 µM | UACC-62 67.1 µM | ACHN 91.2 µM | M14 > 100 µM

COC1OC(CBr)C(OC(=O)c2ccccc2)C(O)C1Br (stereo not drawn)
inactive: NCI-H226 > 100 µM | CCRF-CEM > 100 µM | HCC 2998 > 100 µM | HOP-92 > 100 µM | HCT-116 > 100 µM | U-251 > 100 µM | A498 > 100 µM | 786-0 > 100 µM | COLO 205 > 100 µM | NCI-H23 > 100 µM | UACC-257 > 10 µM | SN12C > 100 µM | UACC-62 > 100 µM | Malme-3M > 100 µM | M14 > 100 µM

CN(C(=N)c1ccccc1)c1ccccc1
inactive: SK-MEL-2 > 100 µM | NCI-H226 > 100 µM | CCRF-CEM > 100 µM | HCC 2998 > 100 µM | HOP-92 51.5 µM | HCT-116 > 100 µM | U-251 > 100 µM | A498 > 10 µM | 786-0 > 100 µM | COLO 205 > 100 µM | NCI-H23 > 100 µM | SN12C > 100 µM | UACC-62 > 100 µM | M14 > 100 µM

c1ccc(-c2sc(-c3ccccc3)c3c2C(c2ccccc2)c2c(-c4ccccc4)sc(-c4ccccc4)c2C3c2ccccc2)cc1 (stereo not drawn)
inactive: NCI-H226 > 100 µM | CCRF-CEM > 100 µM | HCC 2998 > 100 µM | HOP-92 > 100 µM | HCT-116 > 100 µM | U-251 > 100 µM | A498 > 100 µM | 786-0 > 100 µM | COLO 205 > 100 µM | NCI-H23 > 100 µM | UACC-257 > 100 µM | SN12C > 100 µM | UACC-62 > 100 µM | Malme-3M > 100 µM | ACHN > 100 µM | M14 > 100 µM

Cc1ccc2nc(N)[nH]c(=O)c2c1Sc1ccncc1
inactive: SK-MEL-2 > 100 µM | CCRF-CEM 5.05 µM | HCC 2998 1.36 µM | HOP-92 25.9 µM | HCT-116 15.5 µM | U-251 > 51.1 µM | A498 > 78.9 µM | 786-0 12.2 µM | COLO 205 > 92.9 µM | NCI-H23 60.3 µM | UACC-257 > 100 µM | SN12C 17.5 µM | UACC-62 7.4 µM | Malme-3M > 65.2 µM | ACHN 7.35 µM | M14 8.63 µM

C/C(=N\NC(=O)c1ccccc1O)c1c(O)cc(C)oc1=O
inactive: SK-MEL-2 > 100 µM | NCI-H226 34.3 µM | CCRF-CEM > 10 µM | HCC 2998 92 µM | HOP-92 10.4 µM | HCT-116 49.4 µM | U-251 37.7 µM | A498 > 100 µM | 786-0 > 100 µM | COLO 205 > 100 µM | NCI-H23 84.1 µM | UACC-257 60 µM | SN12C > 100 µM | UACC-62 25.6 µM | Malme-3M 99.5 µM | ACHN 45 µM | M14 > 100 µM

Cc1cccc(C)c1N1C(=O)C(=O)C(c2nc3ccccc3s2)/C(=N/NC(=O)NN)C1=O (stereo not drawn)
inactive: SK-MEL-2 > 100 µM | NCI-H226 > 100 µM | CCRF-CEM > 100 µM | HCC 2998 > 100 µM | HOP-92 > 100 µM | HCT-116 > 100 µM | U-251 > 100 µM | A498 > 100 µM | 786-0 > 100 µM | COLO 205 > 100 µM | NCI-H23 > 100 µM | UACC-257 > 100 µM | SN12C > 100 µM | UACC-62 > 100 µM | Malme-3M > 100 µM | ACHN > 100 µM | M14 > 100 µM

Cc1cc(=O)n2c3c(c4c(cc13)c(CO)cc(=O)n4C)OC2
inactive: SK-MEL-2 7.46 µM | NCI-H226 5.22 µM | CCRF-CEM 9.46 µM | HCC 2998 14.8 µM | HOP-92 24.4 µM | HCT-116 4.45 µM | U-251 6.14 µM | A498 14.6 µM | 786-0 12.6 µM | COLO 205 16.5 µM | NCI-H23 13.5 µM | UACC-257 26.2 µM | SN12C 12.9 µM | UACC-62 12.5 µM | Malme-3M 8.65 µM | ACHN 9.57 µM | M14 20.6 µM

CCOC(=O)C1(c2ccccc2)CCC(=O)CC1
inactive: SK-MEL-2 > 100 µM | NCI-H226 > 100 µM | CCRF-CEM > 100 µM | HCC 2998 > 100 µM | HOP-92 > 100 µM | HCT-116 > 100 µM | U-251 > 100 µM | A498 > 100 µM | 786-0 > 100 µM | COLO 205 > 100 µM | NCI-H23 > 100 µM | UACC-257 > 100 µM | SN12C > 100 µM | UACC-62 > 100 µM | Malme-3M > 100 µM | ACHN > 100 µM | M14 > 100 µM

O=C(O)CCSC(=O)Nc1ccccc1Cl
inactive: NCI-H226 > 100 µM | CCRF-CEM > 100 µM | HCC 2998 > 100 µM | HOP-92 > 100 µM | HCT-116 > 100 µM | U-251 > 100 µM | A498 60 µM | 786-0 > 100 µM | COLO 205 > 100 µM | NCI-H23 > 100 µM | UACC-257 > 100 µM | SN12C > 100 µM | UACC-62 > 100 µM | Malme-3M > 100 µM | ACHN > 100 µM | M14 > 100 µM

NCCSSCc1ccccc1CSSCCN
inactive: NCI-H226 > 100 µM | HCC 2998 50.1 µM | HOP-92 > 100 µM | HCT-116 > 100 µM | U-251 > 100 µM | A498 > 100 µM | 786-0 > 100 µM | COLO 205 > 100 µM | NCI-H23 > 100 µM | UACC-257 > 100 µM | SN12C > 100 µM | UACC-62 > 100 µM | Malme-3M 72.3 µM | ACHN 8.65 µM | M14 > 100 µM

O=[N+]([O-])C1C2C=CC(C2)[C@H]1c1ccccc1Cl (stereo partly drawn)
inactive: SK-MEL-2 > 77.8 µM | NCI-H226 15.8 µM | CCRF-CEM 87.5 µM | HCC 2998 > 100 µM | HOP-92 24 µM | HCT-116 > 89.9 µM | U-251 > 87.9 µM | A498 > 89.9 µM | 786-0 > 100 µM | COLO 205 > 100 µM | NCI-H23 63.4 µM | UACC-257 67 µM | SN12C > 100 µM | UACC-62 27.5 µM | Malme-3M 99.1 µM | ACHN > 83.6 µM | M14 > 100 µM

Reference: ChEMBL document CHEMBL1201862, “PubChem BioAssay data set” (2004)
